Target: T1, NcACBP (rNcACBP-GST) (Neospora caninum, UniProt F0VR91)
T1 construct: gene NCLIV_066640
T1 sequence (F0VR91 1-95): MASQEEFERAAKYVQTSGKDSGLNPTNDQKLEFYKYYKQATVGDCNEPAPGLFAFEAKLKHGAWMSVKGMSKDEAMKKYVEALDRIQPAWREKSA
Test: fluorescence binding assay (SpectraMax M5, […] nm)
Details: 1 uM GST-fusion protein, 0-0.3 uM ligand, PBS, room temperature, 5 min; labelled compound

Question: NBD-C16:0-CoA was tested. Which Kd did it give?
Answer: 11.7 nM

— article PMC7029560, “Functional characterization of acyl-CoA binding protein in Neospora caninum” (Parasites & Vectors, 2020)
